Reference: PMC7156612, “Olinciguat, an Oral sGC Stimulator, Exhibits Diverse Pharmacology Across Preclinical Models of Cardiovascular, Metabolic, Renal, and Inflammatory Disease” (Frontiers in Pharmacology, 2020)
“Also recorded” adds a separate entry of the source. Read-outs that look alike come from different tables or passages of the source. Marks after values point to notes of the source that are not given here.

Experiments:
[1] = Olinciguat plasma concentration in hemodynamic study (pooled Wistar and SHR); type: in vivo, rat; settings: for concentration at 1 h: male, Wistar and SHR (spontaneously hypertensive rat), pooled, rat, plasma, oral, mean and SEM of 6 animals (n=3 Wistar, n=3 SHR), read-out: average plasma concentration 1 h after dosing on Day 4
Description: Blood from i.v. and p.o. dosed rats was collected at 16 timepoints (2 groups of rats, 8 timepoints per group) over 24 h. Samples were collected into potassium ethylenediamine tetraacetic acid (K2EDTA) tubes, centrifuged (3,500 rpm for 10 min) to yield plasma. In the pharmacokinetic studies and in all in vivo studies, olinciguat plasma concentrations were determined by LC-MS/MS. Pharmacokinetic (PK) parameters were calculated by noncompartmental analysis using sparse sampling in Phoenix® WinNonLin® v.6.3 (Certara, Princeton, NJ).
Spontaneously hypertensive rats (SHRs) (n=6, male, 230–250 g, 14 weeks of age) and Wistar rats (n=6, male, 230–250 g, 12 weeks of age) were implanted with telemetry transmitters as described above. Olinciguat was formulated as a suspension in a vehicle containing 0.5% methylcellulose and 0.2% Tween. Rats were p.o. dosed with a dosing volume of 5 ml/kg. In a weekly-dose escalation design, rats were administered vehicle (week 1), olinciguat 1 mg/kg (week 2), 3 mg/kg (week 3), and 10 mg/kg (week 4). For each dose level, rats were dosed once daily (QD) for 4 days. Using plasma from tail vein, olinciguat plasma concentrations were determined at 1, 6, and 24 h post-dose on day 4 and reported as the mean from Wistar (n=3) and SHR (n=3). Hemodynamics were recorded hourly during a 24-h baseline period and over the first 3 days of dosing.

[2] = ZSF1 rat model of metabolic syndrome and diabetic nephropathy; type: in vivo; settings: male, rat, plasma, oral; obese ZSF1, enalapril + olinciguat 30 mg/kg/day in chow; read-out: average total plasma concentration of olinciguat at Week 10
Description: (§1) Lean (n=8, 370–420 g, 15 weeks) and obese (n=32, 500–630 g, 15 weeks) male ZSF1 rats were studied. Rats were treated with enalapril to reflect standard of care drug treatment for patients with diabetic kidney disease. Dose modeling based on allometric scaling relationships estimated that a 10 mg/day enalapril dose in humans (within usual dose range of 10–40 mg based on prescribing information) corresponds to 1 mg/kg/day in rats ([Nair and Jacob, 2016]). To measure hemodynamics in freely moving animals, ZSF1 obese rats were implanted with telemetry transmitters (HD-S10, Data Sciences International) at 9–10 weeks of age, as described above.
(§2) The study included a 10-day pretreatment period and a 10-week treatment period. There were five groups of rats in the study. The lean ZSF1 control group (lean control, n=8) and one obese group (obese control, n=8) were fed normal chow and drinking water throughout the 10-day pretreatment period and the 10-week treatment period. Three groups of obese rats were treated with enalapril in drinking water (equivalent to 3 mg/kg/day) throughout the 10-day pretreatment period and the 10-week treatment period. During the treatment period, these enalapril-treated obese rats were administered normal chow (ENP, n=8) or chow containing olinciguat targeting the dose of 10 mg/kg/day (ENP+OLI10, n=8) or 30 mg/kg/day (ENP+OLI30, n=8). Blood and 24-h urine samples were obtained from all animals at baseline (immediately prior to initiation of enalapril treatment), the end of the 10-day pretreatment period (Day 10) and at week 5 and week 10 of the treatment period. Plasma samples were obtained from all olinciguat-treated animals for measurement of olinciguat exposure at week 10. During week 9 of treatment, rats were fasted for 16 h overnight prior to determination of fasting blood glucose using the AlphaTRAK (Abbott) glucose monitoring system. Body weight was measured once every other week. At the end of the study, rats were anesthetized and perfused via the left ventricle with heparinized PBS (1 U/ml heparin) containing IBMX (1 mM). Organs were collected and weighed, and plasma was collected in EDTA tubes. For serum, blood was collected in serum separator tubes, maintained at room temperature for at least 30 min and centrifuged at 6,000 rpm for 10 min, and then stored at −80°C until analysis. Urine and serum samples were analyzed using the Randox Daytona Clinical Chemistry Analyzer (Randox, Kearneysville, WV) for urine protein, serum cholesterol and serum triglycerides. All measurements were performed in accordance with manufacturer's instructions.
(§3) For histology, one kidney from each rat was fixed in 10% formalin, then embedded in paraffin. Slides were prepared and stained with hematoxylin and eosin (H&E) and periodic-acid Schiff (PAS) for light microscopic analysis. Kidney sections were evaluated for the presence of glomerular pathology, tubular damage, interstitial inflammation, interstitial fibrosis, and vascular alterations. Severity-based scoring based on these evaluations was performed by a trained pathologist.
(§4) For the ZSF1 experiment, data are expressed as mean ± standard error of the mean (SEM).
(§5) In the ZSF1 study, change from baseline NT-proBNP, week 10 heart, kidney, and liver weight, urine volume, cholesterol, triglycerides, glucose, and renal histopathology sum score were analyzed by one-way ANOVA corrected for multiple comparisons using Tukey's method. Statistically significant differences vs the obese control and vs the ENP group are indicated in the results. MAP and UPE were analyzed by an ordinary two-way ANOVA with timepoint and treatment group as independent variables, followed by a Tukey's multiple comparisons test. Within each treatment group, significant differences vs baseline are indicated in the results. At week 10, statistically significant differences vs the obese control and vs the ENP control are also indicated in the results.

obese ZSF1 rats = test: as above; type: in vivo
Description: as §1, §2, §3, §4, §5

[3] = obese ZSF1, enalapril 3 mg/kg/day + olinciguat 30 mg/kg/day

## NC(=O)[C@](O)(CNc1nc(-c2cc(-c3ccon3)n(Cc3ccccc3F)n2)ncc1F)C(F)(F)F [olinciguat, (R)-3,3,3-trifluoro-2-(((5-fluoro-2-(1-(2-fluorobenzyl)-5-(isoxazol-3-yl)-1H-pyrazol-3-yl)pyrimidin-4-yl)amino)methyl)-2-hydroxypropanamide]
[1]; 10 mg/kg, pooled samples from Wistar and SHR, total plasma concentration x 1.0% free
  Olinciguat concentration (free): 1.6–3.3 nM^a,e
[1]; 1 mg/kg p.o. QD
  concentration at 1 h: 57.3 ± 38.7 nM
[1]; 3 mg/kg p.o. QD
  concentration at 1 h: 132 ± 30 nM
[1]; 10 mg/kg p.o. QD
  concentration at 1 h: 245 ± 86 nM
[2]
  concentration at 10 weeks: 510 to 610 nM
Obese ZSF1 rats; [3]
  cholesterol, percent lower than obese control: 41%
  increase of proteinuria over 10 weeks: 56%
  liver weight: ↓ liver weight
  serum cholesterol at week 10: ↓ cholesterol
  serum triglycerides at week 10: ↓ triglycerides
  total kidney weight: did not develop renal hypertrophy; also recorded: ↓ kidney weight
  triglycerides, percent lower than obese control: 52%
Obese ZSF1 rats; obese ZSF1, enalapril 3 mg/kg/day + olinciguat 30 mg/kg/day, week 9
  fasting blood glucose: ↓glucose
Obese ZSF1 rats; obese ZSF1, enalapril 3 mg/kg/day + olinciguat 30 mg/kg/day, obese control 1.42 ± 0.12
  UPE at week 10: ↓ proteinuria
Obese ZSF1 rats; obese ZSF1, enalapril 3 mg/kg/day + olinciguat 30 mg/kg/day, p < 0.0001 vs obese control
  renal pathology sum score: significantly improved the composite renal histopathological score; also recorded: ↓ renal histopath
Obese ZSF1 rats; obese ZSF1, olinciguat 30 mg/kg/day, total plasma concentration x 1.0% free
  Olinciguat concentration (free): 5.1–6.1 nM^e
Obese ZSF1 rats; obese ZSF1, treatment with olinciguat (discussion)
  glucose, percent lower: 43%
Obese ZSF1 rats; obese ZSF1, week 10
  difference in MAP at end of treatment between enalapril+olinciguat 30 mg/kg and enalapril monotherapy groups: −8^d mmHg
